From patent US20140213446A1, “HERBICIDAL COMPOSITIONS AND METHODS USING COMBINATIONS OF 4-AMINO-3-CHLORO-6-(4-CHLORO-2-FLUORO-3-METHOXYPHENYL)PYRIDINE-2-CARBOXYLIC ACID OR A DERIVATIVE THEREOF AND AN ARYLOXYPHENOXY PROPIONATE ACCASE INHIBITOR HERBICIDE” (DOW AGROSCIENCES LLC, priority 2013, published 2014)

Key:
Experiment in all cases: Postemergent herbicidal activity, greenhouse
Format in all cases: in vivo
[1] = system: ABUTH Abutilon theophrasti Medik. (velvetleaf)
Method: (§1) Evaluation of Postemergent Herbicidal Activity. Seeds or nutlets of the desired test plant species were planted in Sun Gro Metro-Mix® 360 planting mixture, which typically has a pH of 6.0 to 6.8 and an organic matter content of about 30 percent, in plastic pots with a surface area of 64 square centimeters (cm^2). When required to ensure good germination and healthy plants, a fungicide treatment and/or other chemical or physical treatment was applied. The plants were grown for 7-21 days (d) in a greenhouse with an approximate 15 hour (h) photoperiod which was maintained at about 23-29° C. during the day and 22-28° C. during the night. Nutrients and water were added on a regular basis and supplemental lighting was provided with overhead metal halide 1000-Watt lamps as necessary. The plants were employed for testing when they reached the first or second true leaf stage.
(§2) A weighed amount, determined by the highest rate to be tested, of each test compound was placed in a 25 milliliter (mL) glass vial and was dissolved in 4 mL of a 97:3 volume per volume (v/v) mixture of acetone and dimethyl sulfoxide (DMSO) to obtain concentrated stock solutions. […] The concentrated stock solutions obtained were diluted with 20 mL of an aqueous mixture containing acetone, water, isopropyl alcohol, DMSO, Atplus 411F crop oil concentrate, and Triton® X-155 surfactant in a 48.5:39:10:1.5:1.0:0.02 v/v ratio to obtain spray solutions containing the highest application rates. Additional application rates were obtained by serial dilution of 12 mL of the high rate solution into a solution containing 2 mL of a 97:3 v/v mixture of acetone and DMSO and 10 mL of an aqueous mixture containing acetone, water, isopropyl alcohol, DMSO, Atplus 411F crop oil concentrate, and Triton X-155 surfactant in a 48.5:39:10:1.5:1.0:0.02 v/v ratio to obtain ½X, ¼X, ⅛X and 1/16X rates of the high rate. Compound requirements are based upon a 12 mL application volume at a rate of 187 liters per hectare (L/ha). Formulated compounds were applied to the plant material with an overhead Mandel track sprayer equipped with 8002E nozzles calibrated to deliver 187 L/ha over an application area of 0.503 square meters (m^2) at a spray height of 18 inches ([…]) above the average plant canopy height. Control plants were sprayed in the same manner with the solvent blank.
(§3) Treatments consisted of the methyl ester of 4-amino-3-chloro-6-(4-chloro-2-fluoro-3-methoxyphenyl)pyridine-2-carboxylic acid (Cmpd 1) as technical grade material and fluazifop-P-butyl (Fusilade® DX), haloxyfop-P-methyl (GALLANT® super), and quizalofop-P-ethyl (Assure® II) alone and in combination. The form of compound of formula (I) and fluazifop-P-butyl, haloxyfop-P-methyl, and quizalofop-P-ethyl were applied on an acid equivalent basis.
(§4) The treated plants and control plants were placed in a greenhouse as described above and watered by subirrigation to prevent wash-off of the test compounds. After 14 d, the condition of the test plants as compared with that of the untreated plants was determined visually and scored on a scale of 0 to 100 percent where 0 corresponds to no injury and 100 corresponds to complete kill.
(§5) Results of testing mixtures in accordance with this disclosure and of the components of the mixtures separately against various common weeds in greenhouse trials are reported in the following tables. The reported values are of percent (%) control or percent (%) injury, visually rated. Colby's equation was used to determine the herbicidal effects expected from the mixtures (Colby, S. R. Calculation of the synergistic and antagonistic response of herbicide combinations. Weeds 1967, 15, 20-22.).
(§6) More specifically, the following equation was used to calculate the expected activity of mixtures containing two active ingredients, A and B:
(§7) A=observed efficacy of active ingredient A at the same concentration as used in the mixture; B=observed efficacy of active ingredient B at the same concentration as used in the mixture. […]

[2] = system: AMARE Amaranthus retroflexus L. (redroot pigweed)
Method: as §1, §2, §3, §4, §5, §6, §7

[3] = system: AVEFA Avena fatua L. (wild oat)
Method: as §1, §2, §3, §4, §5, §6, §7

[4] = system: BRSNW Brassica napus (winter oilseed rape)
Method: as §1, §2, §3, §4, §5, §6, §7

[5] = system: CHEAL Chenopodium album L. (common lambsquarters)
Method: as §1, §2, §3, §4, §5, §6, §7

[6] = system: CIRAR Cirsium arvense (L.) Scop. (Canada thistle)
Method: as §1, §2, §3, §4, §5, §6, §7

[7] = system: CYPES Cyperus esculentus L. (yellow nutsedge)
Method: as §1, §2, §3, §4, §5, §6, §7

[8] = system: DIGSA Digitaria sanguinalis (L.) Scop. (large crabgrass)
Method: as §1, §2, §3, §4, §5, §6, §7

[9] = system: EPHHL Euphorbia heterophylla L. (wild poinsettia)
Method: as §1, §2, §3, §4, §5, §6, §7

[10] = system: GLXMA Glycine max (soybean)
Method: as §1, §2, §3, §4, §5, §6, §7

[11] = system: HELAN Helianthus annuus L. (common sunflower)
Method: as §1, §2, §3, §4, §5, §6, §7

[12] = system: IPOHE Ipomoea hederacea (L.) Jacq. (ivyleaf momingglory)
Method: as §1, §2, §3, §4, §5, §6, §7

[13] = system: SETFA Setaria faberi Herrm. (giant foxtail)
Method: as §1, §2, §3, §4, §5, §6, §7

[14] = system: SORVU Sorghum vulgare (common sorghum)
Method: as §1, §2, §3, §4, §5, §6, §7

[15] = system: STEME Stellaria media (L.) Vill. (common chickweed)
Method: as §1, §2, §3, §4, §5, §6, §7

[16] = system: VIOTR Viola tricolor L. (wild violet)
Method: as §1, §2, §3, §4, §5, §6, §7

Measured: Visual Growth Reduction (%) 14 DAA Obs

CCCCOC(=O)[C@@H](C)Oc1ccc(Oc2ccc(C(F)(F)F)cn2)cc1 [Fluazifop-P, fluazifop-P-butyl]
90%: [13]; Fluazifop-P 210 g ae/ha | [14]; Fluazifop-P 105 g ae/ha
100%: [14]; Fluazifop-P 210 g ae/ha
80%: [8]; Fluazifop-P 105 g ae/ha | [13]; Fluazifop-P 52.5 g ae/ha | [13]; Fluazifop-P 105 g ae/ha
70%: [3]; Fluazifop-P 210 g ae/ha | [8]; Fluazifop-P 52.5 g ae/ha | [14]; Fluazifop-P 52.5 g ae/ha
85%: [8]; Fluazifop-P 210 g ae/ha
0%: [1]; Fluazifop-P 52.5 g ae/ha | [1]; Fluazifop-P 105 g ae/ha | [1]; Fluazifop-P 210 g ae/ha | [2]; Fluazifop-P 52.5 g ae/ha | [2]; Fluazifop-P 105 g ae/ha | [2]; Fluazifop-P 210 g ae/ha | [3]; Fluazifop-P 52.5 g ae/ha | [3]; Fluazifop-P 105 g ae/ha | [4]; Fluazifop-P 52.5 g ae/ha | [4]; Fluazifop-P 105 g ae/ha | [4]; Fluazifop-P 210 g ae/ha | [5]; Fluazifop-P 52.5 g ae/ha | [5]; Fluazifop-P 105 g ae/ha | [5]; Fluazifop-P 210 g ae/ha | [6]; Fluazifop-P 52.5 g ae/ha | [6]; Fluazifop-P 105 g ae/ha | [6]; Fluazifop-P 210 g ae/ha | [7]; Fluazifop-P 52.5 g ae/ha | [7]; Fluazifop-P 105 g ae/ha | [7]; Fluazifop-P 210 g ae/ha | [9]; Fluazifop-P 52.5 g ae/ha | [9]; Fluazifop-P 105 g ae/ha | [9]; Fluazifop-P 210 g ae/ha | [10]; Fluazifop-P 52.5 g ae/ha | [10]; Fluazifop-P 105 g ae/ha | [10]; Fluazifop-P 210 g ae/ha | [11]; Fluazifop-P 52.5 g ae/ha | [11]; Fluazifop-P 105 g ae/ha | [11]; Fluazifop-P 210 g ae/ha | [12]; Fluazifop-P 52.5 g ae/ha | [12]; Fluazifop-P 105 g ae/ha | [12]; Fluazifop-P 210 g ae/ha | [15]; Fluazifop-P 52.5 g ae/ha | [15]; Fluazifop-P 105 g ae/ha | [15]; Fluazifop-P 210 g ae/ha | [16]; Fluazifop-P 52.5 g ae/ha | [16]; Fluazifop-P 105 g ae/ha | [16]; Fluazifop-P 210 g ae/ha
